The values below come from patent US10857211B2, “Genomic instability markers in Fanconi anemia” (Children's Hospital Medical Center, priority 2014, dated 2020).

Assay [1] deals with SCC1 cells. Briefly: Matrigel-coated transwell invasion assay, SCC1 cells. In kind it is cell-based, human. Particulars: for invasion of FANCD2sh-treated SCC1 cells: Matrigel-coated transwells, 22 hours. The method, then: (§1) FIGS. 23A and B show a pathway loss promotes invasion of squamous tumor cells. Indicated cells were treated with the indicated shRNA vectors and then plated in Matrigel-coated transwells. After 22 hours, invasive cells were quantified.
After 22 hours, invasive cells were quantified. Representative images are shown. Experiments were carried out in duplicate, and standard deviation calculated.
FA pathway loss promoted motility and invasion. To assess motility and invasiveness of FA-deficient cells, the Matrigel cell invasion assay was used. […] To rule out off-target effects of the lentivirus, an shRNA-resistant EGFP-FANCD2 construct was introduced. The EGFP-FANCD2 fusion protein was expressed in GFP+ cells (but not GFP− cells), and was sufficient to block invasion of FANCD2sh-treated SCC1 cells (FIG. 23B). Similarly, FANCA and FANCJ knockdown stimulated invasion in SCC1 cells (FIG. 23C). […] Gains in cellular motility were also observed for normal oral keratinocytes (NOKS): 1.3% of NTsh normal oral keratinocytes (NOKS) cells plated were able to migrate through matrigel. This invasion frequency doubled upon FANCD2 knockdown, highlighting potential relevance for FA loss for the motility of normal cells (data not shown).

Assay [2] relates to SCC47 cells. Kind of assay: Matrigel-coated transwell invasion assay, SCC47 cells. In kind it is cell-based, human. Particulars: 100 uM NB-DNJ, 48 hrs; NTsh, FANCD2sh, FANCJsh. Here is the method: as §1
(§2) FIGS. 27I and J show NTsh-, FANCD2sh- and FANCJsh-treated SCC1 and SCC47 cells were cultured for 48 hrs in 100 uM NB-DNJ.
GM3 is the precursor of complex gangliosides (FIG. 27E), a key component of cell membranes, and enriched in lipid rafts (LRs). GM3 and its derivative GM1 localize to microdomains in apical epithelial membranes (68) and GM3 depletion was reported to blocked wound healing in diabetic mice (69). Further, GM3 was elevated in head and neck tumors (compared to adjacent normal tissue) (70) and in serum of HNSCC patients, and was predictive of tumor size and relapse (71). On the other hand, links between GM3 levels and FA have not yet been reported. Targeted analyses by UPLC-MS/MS in normal cutaneous (NIKS) and normal oral (NOKS) keratinocytes, as well as in UM-SCC1 cells verified GM3 regulation across the major carbohydrate component lengths (i.e., from d34:1 to d44:2) (FIG. 27F-H). […] To assess the functional significance of ganglioside accumulation in FA cells, the effect of a ganglioside synthesis inhibitor N-butyldeoxynojirimycin (NB-DNJ)72 was measured on invasion driven by FA pathway loss. […]

Assay [3] has as its system SCC1 cells. Kind of assay: Cell growth in culture, SCC1 cells. In kind it is cell-based, human. Conditions: for growth of FANCD2sh-treated SCC1 cells: NSC23766: 48 hours culture.
The subject of assay [4] is SCC47 cells. Briefly: Cell growth in culture, SCC47 cells. Format: cell-based, human. Particulars: NB-DNJ.
The subject of assay [5] is GM3. Kind of assay: GM3 levels by targeted MS in NB-DNJ treated cells. In kind it is cell-based, human. Particulars: 100 uM NB-DNJ, 48 hrs; NTsh-, FANCD2sh- and FANCJsh-treated SCC1 and SCC47 cells. Here is the method: as §2
GM3 is the precursor of complex gangliosides (FIG. 27E), a key component of cell membranes, and enriched in lipid rafts (LRs). GM3 and its derivative GM1 localize to microdomains in apical epithelial membranes (68) and GM3 depletion was reported to blocked wound healing in diabetic mice (69). Further, GM3 was elevated in head and neck tumors (compared to adjacent normal tissue) (70) and in serum of HNSCC patients, and was predictive of tumor size and relapse (71). On the other hand, links between GM3 levels and FA have not yet been reported. Targeted analyses by UPLC-MS/MS in normal cutaneous (NIKS) and normal oral (NOKS) keratinocytes, as well as in UM-SCC1 cells verified GM3 regulation across the major carbohydrate component lengths (i.e., from d34:1 to d44:2) (FIG. 27F-H). […] To assess the functional significance of ganglioside accumulation in FA cells, the effect of a ganglioside synthesis inhibitor N-butyldeoxynojirimycin (NB-DNJ)72 was measured on invasion driven by FA pathway loss. NTsh-, FANCD2sh- and FANCJsh-treated SCC1 and SCC47 cells were exposed to NB-DNJ (or vehicle), and subjected to Matrigel invasion assays (FIG. 23).

The subject of assay [6] is FA-deficient SCC. Kind of assay: Invasion of FA-deficient SCC, rescue by supplementation. Format: cell-based.
In assay [7] the test system is SCC1 cells. Briefly: Flow cytometry-based cell-cycle analysis after melphalan, SCC1 cells. Also noted: species or system human. Particulars: FANCD2-deficient SCC1 cells compared to NTsh. An excerpt: (§3) Percentages of cells in G2/M are indicated. […] Images were taken at the same magnification and exposure. […] Errors bars represent standard deviation; ** p<0.001; *** p<0.0001 (ANOVA).
FA pathway loss leads to cytoskeletal and membrane aberrations in HNSCC cells. A significant proportion of sporadic HNSCCs harbor somatic mutations in FA and FA-related genes (33). To test for biological effects of FA pathway loss, knockdown models of HNSCC were created using published lentiviral shRNA vectors (15, 41). First, the HPV-negative (UM-)SCC1 cell line was knocked down for FANCA, FANCD2, and FANCJ. Western blot analyses verified specific and efficient FA protein depletion (FIG. 22A). To verify that FANCD2 depletion induced classical FA phenotypes, DNA crosslinker sensitivity was quantified. […] This was similar to FA lymphoblasts and fibroblasts that also respond to melphalan with G2/M cell-cycle arrest (42-43). FANCA- and FANCJ-deficient SCC1 cells responded similarly, as did UMSCC6 and UMSCC47 HNSCC cell lines depleted for FA proteins (data not shown). Thus, FA knockdown in HPV-positive and -negative […] cells induced the classic FA DNA-crosslinker sensitivity phenotype.

Assay [8] concerns the target T1, pDNA-PKcs (Homo sapiens, UniProt P78527).
T1 construct: Western blot analysis of NTsh-, FANCD2sh- and FANCJsh-treated SCC1 cells that were subjected to a 30-minute pulse of bleomycin; endogenous in cells; host or cells: UM-SCC1 (SCC1) HNSCC cells carrying NTsh, FANCD2sh or FANCJsh lentiviral shRNA
Briefly: Western blot of pDNA-PKcs in SCC1 cells after bleomycin pulse. Format: cell-based. Particulars: 10 uM NU7026; 30-minute bleomycin pulse; FANCD2sh-, FANCJsh- and control (NTsh) SCC1 cells. An excerpt: DNA-PK/Rac1 signaling occurred in response to FA pathway loss and was required for cytoskeletal re-organization and invasion. […] These defects are accompanied, under some circumstances, by a corresponding increase in the activity of error-prone non-homologous end joining (NHEJ) pathway components (27-28). Repair by NHEJ requires activation of the catalytic subunit of DNA-dependent protein kinase (DNA-PKcs) and subsequent autophosphorylation on serine […] (pDNA-PKcs). The inventors first determined whether DNA-PKcs signaling was activated and involved in FA-associated invasion. FANCD2sh- and FANCJsh-treatment of SCC1 cells stimulated pDNA-PKcs.

Assay [9] relates to Rac1. Kind of assay: Rac1-GTP pulldown assay in SCC1 cells. Format: cell-based, human. An excerpt:
Members of the small GTPase Rho, Rac and CDC42 family of signaling molecules were key players in normal and transformed cell morphology, adhesion, motility, and invasion (46). […] Because Rac1 activation is reported to produce intercellular projections (47-48) similar to the ones noted in FA-deficient cells (FIG. 22E), the inventors carried out Rac1-GTP pull-downs to determine whether Rac1 is activated by FA pathway loss; FANCJsh SCC1 cells were used, since pDNA-PK activation in these cells was robust (FIG. 24A). […] To examine the requirement for Rac1 in cytoskeletal re-organization and invasion of FA-deficient cells, the specific Rac1 small molecule inhibitor NSC23766 was used (49-50). […] Thus, FA pathway loss leads to downstream activation of pDNA-PK and Rac1, and both are required for cytoskeletal rearrangements and invasion.

Assay [10] concerns SCC1 cells. Briefly: Phalloidin staining, quantification of intercellular projections in SCC1 cells. In kind it is cell-based, human. Particulars: FANCD2sh- and FANCJsh SCC1 cells, phalloidin stain.
Description: as §3

Entries after “also recorded” stand apart in the source; their conditions may differ.

Regarding `CCCCN1C[C@H](O)[C@@H](O)[C@H](O)[C@H]1CO` [NB-DNJ, N-butyldeoxynojirimycin], the “invasion driven by FA loss, SCC1 cells” value in assay [1] (100 uM NB-DNJ, 48 hrs, NTsh, FANCD2sh, FANCJsh) is on record as “selectively inhibited invasion driven by FA loss”. For the same compound, in assay [2], the “invasion driven by FA loss, SCC47 cells” value is on record as “selectively inhibited invasion driven by FA loss”. Moreover, the “growth of SCC1 cells” value in assay [3] (NB-DNJ) is “did not affect the growth”. In addition, the “growth of SCC47 cells” value in assay [4] is “did not affect the growth”. Further, in assay [5], the GM3 levels entry was “reduced GM3 levels; also recorded: successfully repressed GM3 levels”.

In the case of `CC(C)CCC[C@@H](C)[C@H]1CC[C@H]2[C@@H]3CC=C4C[C@@H](O)CC[C@]4(C)[C@H]3CC[C@]12C` [cholesterol], in assay [6], the “invasion of FA-deficient SCC” value is “rescued”.

For the compound `N[C@@H](Cc1ccc(N(CCCl)CCCl)cc1)C(=O)O` [melphalan], the “proportion of cells in G2/M after melphalan” value in assay [7] is “increased proportion of cells in G2/M”.

Regarding NeuACα2-3Galβ1-4Glcβ1-1ceramide [GM3], in [1] (GM3 50 uM), the “invasion of SCC1 cells with GM3 in cell media” value is listed as “doubled the invasion”. Besides, the “SCC1 invasion on GM3 addition to culture media” value in assay [1] (particularly in FA-proficient cells, data not shown) is recorded as “stimulated SCC1 invasion”.

Take `O=c1cc(N2CCOCC2)oc2c1ccc1ccccc12` [NU7026]: the “pDNA-PKcs level (Western blot)” value in assay [8] was “undetectable pDNA-PKcs”. Besides, the “invasion of FANCD2sh-treated SCC1 cells” value in [1] is listed as “suppressed invasion”. The “growth of FANCD2sh-treated SCC1 cells” value in [3] was “did not appear to affect growth”. In addition, in [9] (FANCJsh SCC1 cells), the “active Rac1 (Rac1-GTP) in FA-deficient cells” value is on record as “significantly lowered active Rac1”. Also, in [9] (NTsh control SCC1 cells), the “Rac1 activity in control cells” value was “did not affect Rac1 activity”.

Take `Oc1ccc([C@H]2COc3cc(O)ccc3C2)cc1` [equol]: the “invasion of FA-deficient SCC” value in assay [6] is reported as “rescued”.

For `O=c1c(O)c(-c2ccc(O)c(O)c2)oc2cc(O)cc(O)c12` [quercetin], in assay [6], the “invasion of FA-deficient SCC” value was “rescued”.

For `CCN(CC)CCCC(C)Nc1nc(C)cc(Nc2ccc3nc(C)cc(N)c3c2)n1` (centres unmarked) [NSC23766], the “invasion of FANCD2sh-treated SCC1 cells” value in [1] is “suppressed cell invasion”. Also, in assay [1] (NTsh control SCC1 cells), the “invasion of control cells” value was “did affect invasion of control cells”. The “growth of FANCD2sh-treated SCC1 cells” value in assay [3] is listed as “did not appear to affect growth”. Besides, the “number of long intercellular projections” value in assay [10] is recorded as “reduced the number of long intercellular projections”.
